Measurements published in patent US20230192704A1, “MONOCARBOXYLIC ACID TRANSPORTER 4 (MCT4) MODULATORS AND USES THEREOF” (Teon Therapeutics, Inc., priority 2020, published 2023).

Assays:
[1] = biological target: T1, MCT1 (Homo sapiens, UniProt P53985); test: MCT1 transport assay (L-lactate influx, BCECF-AM intracellular pH); format: cell-based; details: BT-20 cells expressing exclusively MCT1
T1 construct: BT-20 cells—a triple negative human breast cancer cell line expressing exclusively MCT1 (confirmed by Western blotting); host or cells: BT-20
T1 sequence (P53985 1-500): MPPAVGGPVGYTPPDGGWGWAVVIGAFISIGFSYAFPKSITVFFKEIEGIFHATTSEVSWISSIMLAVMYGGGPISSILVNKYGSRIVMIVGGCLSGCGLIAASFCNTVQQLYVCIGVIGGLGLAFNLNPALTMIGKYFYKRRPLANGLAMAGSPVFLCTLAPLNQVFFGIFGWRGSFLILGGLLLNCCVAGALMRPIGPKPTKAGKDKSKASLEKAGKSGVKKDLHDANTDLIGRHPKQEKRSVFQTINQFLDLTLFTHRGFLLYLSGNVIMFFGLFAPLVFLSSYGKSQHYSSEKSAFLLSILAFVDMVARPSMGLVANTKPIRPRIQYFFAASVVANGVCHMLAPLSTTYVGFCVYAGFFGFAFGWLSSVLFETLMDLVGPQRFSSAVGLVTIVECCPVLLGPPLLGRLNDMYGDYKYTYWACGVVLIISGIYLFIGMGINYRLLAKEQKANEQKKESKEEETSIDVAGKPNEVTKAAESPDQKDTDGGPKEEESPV
T1 sequence (P35613 140-385 partner limits assumed): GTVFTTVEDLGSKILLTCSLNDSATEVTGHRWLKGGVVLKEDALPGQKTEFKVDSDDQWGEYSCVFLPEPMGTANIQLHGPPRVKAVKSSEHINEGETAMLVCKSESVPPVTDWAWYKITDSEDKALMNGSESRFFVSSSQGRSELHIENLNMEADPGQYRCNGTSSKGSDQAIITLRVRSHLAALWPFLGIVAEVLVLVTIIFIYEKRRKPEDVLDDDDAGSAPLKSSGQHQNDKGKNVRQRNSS
Description: The following in vitro MCT4 and MCT1 transport assays were used to measure the effect of the compounds on L-lactate influx into two different cell lines: • a) MDA-MB-231 cells—a triple negative human breast cancer cell line expressing exclusively MCT4 (confirmed by Western blotting) was used for the MCT4 transport assay, • b) BT-20 cells—a triple negative human breast cancer cell line expressing exclusively MCT1 (confirmed by Western blotting) was used for the
(§1) The compounds' efficacy in both assays was determined by calculating their IC50 value (the concentration of test compound that inhibited 50% of biological activity).
(§2) MCT4 is predominantly involved in cellular efflux of lactate from the cell, preventing intracellular acidification. In the MCT4 in vitro transport system described here it was possible to drive influx of lactate in the cells and test the compounds efficacy in preventing this process. MCT1 is involved in influx-efflux of lactate, and because it is closely related to MCT4, it is a major selectivity target for MCT4 inhibitor. The MCT1 in vitro transport system described here measured the influx of lactate in the cells and ability of test compounds in preventing this process.
BT-20 (ATCC); Media: EMEM+10% FBS+1% PS
(§3) Tyrode's Solution pH7.4 (NaCl 119 mM; KC1 5 mM; HEPES pH7.4 25 mM; CaCl2 2 mM; MgCl2 2 mM; Glucose 6 g/L)
(§4) The following assay was performed to assess MCT4 (MDA-MB-231 cell line) or MCT1 (BT-20 cell line) activity by monitoring the intracellular pH change that accompanies lactate/proton transport using the pH-sensitive fluorescent dye BCECF-AM.
(§5) Compound preparation: The compounds were serially diluted in 100% DMSO 1:3 for 8 pts and transferred (500 nl) to a 96-well plate by Echo.
(§6) Cell preparation: Cells were briefly rinsed with 10 ml of PBS solution to remove all traces of serum, trypsinized (0.05% Trypsin-EDTA) at 25° C. for 2-3 minutes and washed twice with Tyrode's solution. The cell viability and concentration were determined using Vi-Cell. Cells were resuspended in Tyrode's solution.
(§7) Cells were loaded with the pH sensitive dye BCECF-AM (5 uM final concentration from the 30 mM DMSO stock solution) at 37° C. for 30 minutes before being washed twice to remove excess dye and resuspended to 2 million/ml cells in Tyrode's solution. Cells were seeded into a 96-well plate (200,000 cells/well) directly onto the test compound or a reference compound for 10 minutes at 37° C. Following incubation with test compounds, 25 ul of 30 mM Sodium-L-lactate was added. This addition was performed on the FlexStation III as a part of a real-time kinetic protocol. The ratio of cellular fluorescence at 535 nm after excitation at 490 nm/440 nm was measured over time for baseline (pre-lactate addition) and post-lactate addition for 60 sec with or without compounds present. Inhibitory concentration response curves were generated for compounds and their IC50 values calculated.

[2] = biological target: T2, MCT4 (Homo sapiens, UniProt O15427); test: MCT4 transport assay (L-lactate influx, BCECF-AM intracellular pH); format: cell-based; details: MDA-MB-231 cells expressing exclusively MCT4
T2 construct: MDA-MB-231 cells—a triple negative human breast cancer cell line expressing exclusively MCT4 (confirmed by Western blotting); host or cells: MDA-MB-231
T2 sequence (O15427 2-465 limits assumed): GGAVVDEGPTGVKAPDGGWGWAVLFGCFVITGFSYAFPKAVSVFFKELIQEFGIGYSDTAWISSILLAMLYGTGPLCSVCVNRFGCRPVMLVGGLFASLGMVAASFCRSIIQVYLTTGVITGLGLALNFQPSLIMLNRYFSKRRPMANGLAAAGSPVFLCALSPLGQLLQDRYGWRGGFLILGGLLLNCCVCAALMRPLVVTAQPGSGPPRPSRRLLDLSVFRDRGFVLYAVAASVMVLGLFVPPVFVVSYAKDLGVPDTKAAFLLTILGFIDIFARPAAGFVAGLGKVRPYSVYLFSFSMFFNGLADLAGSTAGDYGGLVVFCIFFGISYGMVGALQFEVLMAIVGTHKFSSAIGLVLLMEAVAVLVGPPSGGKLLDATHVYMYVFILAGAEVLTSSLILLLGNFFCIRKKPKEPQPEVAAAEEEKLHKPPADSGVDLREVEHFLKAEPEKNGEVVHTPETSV
Protocol: as §1, §2, §3, §4, §5, §6, §7

| Compound | IC50 [1] | IC50 [2] |
| --- | --- | --- |
| Cc1nc2nc(C)c(O[C@@H]3CCN(c4cnc(C56CC(CN7CC8(COC8)C7)(C5)C6)nc4)C3)c(C)n2n1 [Compound 21, (R)-6-((3-(5-(3-((2,5,7-trimethyl-[1,2,4]triazolo[1,5-a]pyrimidin-6-yl)oxy)pyrrolidin-1-yl)pyrimidin-2-yl)bicyclo[1.1.1]pentan-1-yl)methyl)-2-oxa-6-azaspiro[3.3]heptane] | > 1 µM | 0.5 to 1 µM |
| Cc1nc2nc(C)c(O[C@@H]3CCN(c4ccc(-c5ccc(CN6CC(S(C)(=O)=O)C6)nn5)cc4)C3)c(C)n2n1 [Compound 10, (R)-2,5,7-trimethyl-6-((1-(4-(6-((3-(methylsulfonyl)azetidin-1-yl)methyl)pyridazin-3-yl)phenyl)pyrrolidin-3-yl)oxy)-[1,2,4]triazolo[1,5-a]pyrimidine] | > 1 µM | < 0.1 µM |
| Cc1nc2nc(C)c(O[C@@H]3CCN(c4cnc(C56CC(C(=O)N7CC8(COC8)C7)(C5)C6)nc4)C3)c(C)n2n1 [Compound 24, (R)-(2-oxa-6-azaspiro[3.3]heptan-6-yl)(3-(5-(3-((2,5,7-trimethyl-[1,2,4]triazolo[1,5-a]pyrimidin-6-yl)oxy)pyrrolidin-1-yl)pyrimidin-2-yl)bicyclo[1.1.1]pentan-1-yl)methanone] | > 1 µM | > 1 µM |
| Cc1cn2c(C)c(O[C@@H]3CCN(c4ccc(-c5ccc(CN6CCOCC6)nn5)cc4)C3)c(C)nc2n1 [Compound 2, (R)-4-((6-(4-(3-((2,5,7-trimethylimidazo[1,2-a]pyrimidin-6-yl)oxy)pyrrolidin-1-yl)phenyl)pyridazin-3-yl)methyl)morpholine] | > 1 µM | 0.1 to 0.499 µM |
| COC1CN(C(=O)C23CC(c4ncc(N5CC[C@@H](Oc6c(C)nc7nc(C)nn7c6C)C5)cn4)(C2)C3)C1 [Compound 25, (R)-(3-methoxyazetidin-1-yl)(3-(5-(3-((2,5,7-trimethyl-[1,2,4]triazolo[1,5-a]pyrimidin-6-yl)oxy)pyrrolidin-1-yl)pyrimidin-2-yl)bicyclo[1.1.1]pentan-1-yl)methanone] | > 1 µM | 0.5 to 1 µM |
| COC1CN(CC23CC(c4ncc(N5CC[C@@H](Oc6c(C)nc7nc(C)nn7c6C)C5)cn4)(C2)C3)C1 [Compound 22, (R)-6-((1-(2-(3-((3-methoxyazetidin-1-yl)methyl)bicyclo[1.1.1]pentan-1-yl)pyrimidin-5-yl)pyrrolidin-3-yl)oxy)-2,5,7-trimethyl-[1,2,4]triazolo[1,5-a]pyrimidine] | > 1 µM | < 0.1 µM |
| Cc1nc2nc(C)c(C)n2c(C)c1O[C@@H]1CCN(c2ccc(-c3ccc(CN4CCOCC4)nn3)cc2)C1 [Compound 3, (R)-4-((6-(4-(3-((2,3,5,7-tetramethylimidazo[1,2-a]pyrimidin-6-yl)oxy)pyrrolidin-1-yl)phenyl)pyridazin-3-yl)methyl)morpholine] | > 1 µM | > 1 µM |
| Cc1nc2nc(C)c(O[C@@H]3CCN(c4ccc(-c5ccc(CN6CC7(COC7)C6)nn5)cc4)C3)c(C)n2n1 [Compound 7, (R)-6-((6-(4-(3-((2,5,7-trimethyl-[1,2,4]triazolo[1,5-a]pyrimidin-6-yl)oxy)pyrrolidin-1-yl)phenyl)pyridazin-3-yl)methyl)-2-oxa-6-azaspiro[3.3]heptane] | > 1 µM | < 0.1 µM |
| Cc1cc2nc(C)c(O[C@@H]3CCN(c4ccc(-c5ccc(CN6CCOCC6)nn5)cc4)C3)c(C)n2n1 [Compound 4, (R)-4-((6-(4-(3-((2,5,7-trimethylpyrazolo[1,5-a]pyrimidin-6-yl)oxy)pyrrolidin-1-yl)phenyl)pyridazin-3-yl)methyl)morpholine] | > 1 µM | < 0.1 µM |
| Cc1nc2nc(C)c(O[C@@H]3CCN(c4cnc(C#CCN5CCOCC5)nc4)C3)c(C)n2n1 [Compound 5, (R)-4-(3-(5-(3-((2,5,7-trimethyl-[1,2,4]triazolo[1,5-a]pyrimidin-6-yl)oxy)pyrrolidin-1-yl)pyrimidin-2-yl)prop-2-yn-1-yl)morpholine] | > 1 µM | < 0.1 µM |
| Cc1nc2nc(C)c(O[C@@H]3CCN(c4ccc(-c5ccc(CN6CC(C(N)=O)C6)nn5)cc4)C3)c(C)n2n1 [Compound 11, (R)-1-((6-(4-(3-((2,5,7-trimethyl-[1,2,4]triazolo[1,5-a]pyrimidin-6-yl)oxy)pyrrolidin-1-yl)phenyl)pyridazin-3-yl)methyl)azetidine-3-carboxamide] | > 1 µM | 0.1 to 0.499 µM |
| Cc1cc2nc(C)c(O[C@@H]3CCN(c4ccc(-c5ccc(C(=O)N6CCOCC6)nn5)cc4)C3)c(C)n2n1 [Compound 20, (R)-morpholino(6-(4-(3-((2,5,7-trimethylpyrazolo[1,5-a]pyrimidin-6-yl)oxy)pyrrolidin-1-yl)phenyl)pyridazin-3-yl)methanone] | > 1 µM | < 0.1 µM |
| Cc1nc2nc(C)c(O[C@@H]3CCN(c4ccc(-c5ccc(C(=O)N6CC7(COC7)C6)nn5)cc4)C3)c(C)n2n1 [Compound 13, (R)-(2-oxa-6-azaspiro[3.3]heptan-6-yl)(6-(4-(3-((2,5,7-trimethyl-[1,2,4]triazolo[1,5-a]pyrimidin-6-yl)oxy)pyrrolidin-1-yl)phenyl)pyridazin-3-yl)methanone] | > 1 µM | < 0.1 µM |
| COC1CN(Cc2ccc(-c3ccc(N4CC[C@@H](Oc5c(C)nc6nc(C)nn6c5C)C4)cc3)nn2)C1 [Compound 8, (R)-6-((1-(4-(6-((3-methoxyazetidin-1-yl)methyl)pyridazin-3-yl)phenyl)pyrrolidin-3-yl)oxy)-2,5,7-trimethyl-[1,2,4]triazolo[1,5-a]pyrimidine] | > 1 µM | < 0.1 µM |
